Columns and labels:
[1] = test system: MDA-MB-436; experiment: CTG experiment for cell viability (CellTiter-Glo, 96-well plate, 7 days); assay type: cell-based; conditions: MDA-MB-436 cells, 7 days culture with compound
How it was run: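 Viability was read by CellTiter-Glo luminescence after 10 min at room temperature, once the compound-containing medium had been replaced with PBS. Before that, MDA-MB-436 cells grown in DMEM were exposed to compounds for 7 days at 37°C. Curve fitting followed the enzyme assay method.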

[2] = molecular target: T1, Recombinant human His6-USP1/His6-UAF1 complex protein (Homo sapiens, UniProt O94782); experiment: In vitro inhibitory activity against USP1 (Ubiquitin Rhodamine 110 fluorescence detection, 384-well plate); assay type: biochemical; conditions: Ub-Rho substrate, 1 hour pre-incubation, read after 30 minutes
T1 construct: His6; purchased R&D E-568-050
T1 sequence (O94782 whole entry): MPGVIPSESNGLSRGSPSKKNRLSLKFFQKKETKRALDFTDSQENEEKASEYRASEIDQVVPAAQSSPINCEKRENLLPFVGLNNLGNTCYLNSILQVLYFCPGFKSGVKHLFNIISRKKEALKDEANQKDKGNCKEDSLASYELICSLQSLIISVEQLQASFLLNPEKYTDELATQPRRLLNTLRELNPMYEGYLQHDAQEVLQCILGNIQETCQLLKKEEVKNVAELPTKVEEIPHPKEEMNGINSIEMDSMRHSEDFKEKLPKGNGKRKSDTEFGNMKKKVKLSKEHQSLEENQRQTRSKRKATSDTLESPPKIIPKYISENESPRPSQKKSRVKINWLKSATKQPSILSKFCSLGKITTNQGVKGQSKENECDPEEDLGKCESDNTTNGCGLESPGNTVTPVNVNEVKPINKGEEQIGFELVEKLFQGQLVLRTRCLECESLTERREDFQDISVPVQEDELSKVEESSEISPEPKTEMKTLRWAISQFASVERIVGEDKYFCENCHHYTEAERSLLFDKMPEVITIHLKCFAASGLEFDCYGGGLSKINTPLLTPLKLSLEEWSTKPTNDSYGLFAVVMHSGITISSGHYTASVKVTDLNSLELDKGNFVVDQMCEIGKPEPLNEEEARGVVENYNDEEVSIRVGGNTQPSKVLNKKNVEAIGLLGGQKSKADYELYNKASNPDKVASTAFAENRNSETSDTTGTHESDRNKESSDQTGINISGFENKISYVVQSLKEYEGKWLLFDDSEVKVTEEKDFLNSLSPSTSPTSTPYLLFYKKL
T1 sequence (Q8TAF3 whole entry partner): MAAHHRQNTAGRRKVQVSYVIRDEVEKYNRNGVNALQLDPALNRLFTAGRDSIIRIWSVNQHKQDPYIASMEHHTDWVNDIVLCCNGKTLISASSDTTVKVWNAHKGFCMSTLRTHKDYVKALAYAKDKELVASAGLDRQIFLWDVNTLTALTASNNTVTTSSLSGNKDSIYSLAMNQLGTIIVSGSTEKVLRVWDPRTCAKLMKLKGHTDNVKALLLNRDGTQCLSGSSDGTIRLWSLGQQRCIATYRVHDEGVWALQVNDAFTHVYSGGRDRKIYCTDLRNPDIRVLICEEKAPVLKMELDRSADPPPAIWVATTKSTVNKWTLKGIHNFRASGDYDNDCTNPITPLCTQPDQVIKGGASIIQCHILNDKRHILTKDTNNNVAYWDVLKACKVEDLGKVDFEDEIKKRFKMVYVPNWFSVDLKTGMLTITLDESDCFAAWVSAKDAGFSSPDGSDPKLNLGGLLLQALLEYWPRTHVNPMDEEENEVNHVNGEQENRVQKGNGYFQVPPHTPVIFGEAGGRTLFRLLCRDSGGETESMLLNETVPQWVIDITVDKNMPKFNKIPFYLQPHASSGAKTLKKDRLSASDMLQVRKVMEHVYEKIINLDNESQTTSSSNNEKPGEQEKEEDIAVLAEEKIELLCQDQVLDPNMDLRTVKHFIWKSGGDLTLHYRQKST
How it was run: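 Compounds, kept as 50 mM DMSO stocks, were acoustically dispensed into modified Tris buffer. Inhibition of recombinant human His6-USP1/His6-UAF1 was read by fluorescence from cleavage of Ub-Rho110 substrate.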

[3] = Homo sapiens, MDA-MB-436, 168 h

SMILES | IC50 [1, 3] [nM] | IC50 [2] [nM] | IC50 [1] [nM]
COc1cc(-c2nc(C(F)(F)F)cn2C)ccc1CNc1nc(-c2c(OC)ncnc2C2CC2)ncc1OC(F)F [Example 136, 4'-Cyclopropyl-5-(difluoromethoxy)-6'-methoxy-N-(2-methoxy-4-(1-methyl-4-(trifluoromethyl)-1H-imidazol-2-yl)benzyl)-[2,5'-bipyrimidin]-4-amine] | 24.9 | 17 | 
COc1cc(CNc2nc(-c3ccccc3C3CC3)nc3ccoc23)ccc1-c1nc(C(F)(F)F)cn1C [Example 176, 2-(2-Cyclopropylphenyl)-N-(3-methoxy-4-(1-methyl-4-(trifluoromethyl)-1H-imidazol-2-yl)benzyl)furo[3,2-d]pyrimidin-4-amine] | 187 | 4 | 
[2H]C([2H])([2H])N(C[C@H]1CC[C@H](c2nc(C(F)(F)F)cn2C2CC2)CC1)c1nc(-c2c(OC)ncnc2C2CC2)ncc1OC [Example S23, 4'-Cyclopropyl-N-(((1R,4R)-4-(1-cyclopropyl-4-(trifluoromethyl)-1H-imidazol-2-yl)cyclohexyl)methyl)-5,6'-dimethoxy-N-(methyl-D3)-[2,5'-bipyrimidin]-4-amine] | 0.1 | 4.8 | 
COc1cnc(-c2c(OC)ncnc2C2CC2)nc1N(C)CC12C3C4C1C1C2C3C41c1nc(C(F)(F)F)cn1C (stereo not shown) [Example 207, 2-(4-cyclopropyl-6-methoxy-pyrimidin-5-yl)-5-methoxy-N-methyl-N-[[4-[1-methyl-4-(trifluoromethyl)imidazol-2-yl]cuban-1-yl]methyl]pyrimidin-4-amine] | 5.8 | 3.5 | 
CC(C)c1ccccc1-c1ncc(C(F)(F)F)c(NCC2CCN(c3nc(C(F)(F)F)cn3C)CC2)n1 [Example 75, 2-(2-Isopropylphenyl)-N-((1-(1-methyl-4-(trifluoromethyl)-1H-imidazol-2-yl)piperidin-4-yl)methyl)-5-(trifluoromethyl)pyrimidin-4-amine] | 331 | 3.7 | 
COc1cnc(-c2c(OC)ncnc2C2CC2)nc1N(C)CC12C3C4C1C1C2C3C41c1nc(C(F)(F)F)cn1C (stereo not shown) [Example S51, 4'-cyclopropyl-5,6'-dimethoxy-N-methyl-N-((4-(1-methyl-4-(trifluoromethyl)-1H-imidazol-2-yl)cuban-1-yl)methyl)-[2,5'-bipyrimidin]-4-amine] |  | 3.8 | 5.8
COc1ncnc(C2CC2)c1-c1ncc(OC(C)C)c(NCC2CCN(c3nc(C(F)(F)F)cn3C)CC2)n1 [Example 110, 4'-Cyclopropyl-5-isopropoxy-6'-methoxy-N-((1-(1-methyl-4-(trifluoromethyl)-1H-imidazol-2-yl)piperidin-4-yl)methyl)-[2,5'-bipyrimidin]-4-amine] | 354 | 28.6 | 
COc1cc(CNc2nc(-c3ccccc3C3CC3)ncc2OC)ccc1-c1nc(C(F)(F)F)cn1C [Example 172, 2-(2-Cyclopropylphenyl)-5-methoxy-N-(3-methoxy-4-(1-methyl-4-(trifluoromethyl)-1H-imidazol-2-yl)benzyl)pyrimidin-4-amine] | 954 | 12 | 

From patent EP4741386A1 (Jiangsu Yahong Meditech Co., Ltd., priority 2023, dated 2025)
